A value given as a limit tells only on which side of the number the result lay.

These results are taken from US20080249075A1, “C11 Modified Retrosteroids as Progesterone Receptor Modulator Compounds” (Solvay Pharmaceuticals GmbH, priority 2007, published 2008).

In test [1] the target is T1, human progesterone receptor (Homo sapiens, UniProt P06401).
T1 sequence (P06401 679-933 limits assumed): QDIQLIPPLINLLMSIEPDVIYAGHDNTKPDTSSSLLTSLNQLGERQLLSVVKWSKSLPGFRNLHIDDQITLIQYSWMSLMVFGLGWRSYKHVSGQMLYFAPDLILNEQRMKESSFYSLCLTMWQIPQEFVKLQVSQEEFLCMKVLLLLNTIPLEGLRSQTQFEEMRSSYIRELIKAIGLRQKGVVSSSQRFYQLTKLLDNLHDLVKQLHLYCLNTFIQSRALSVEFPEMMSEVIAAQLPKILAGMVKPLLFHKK
Nature of the test: Progesterone receptor binding assay, human PR (CEREP). To be noted: 3H-R5020 as ligand, MCF7 cells as source of PR; for Ki: read-out: Human PR binding (pKi) (converted). How it is done: The progesterone receptor (PR) binding assays were performed at CEREP (Celle I'Evescault, France).
The binding to the human progesterone receptor (Assay Cat No: Progesterone receptor-814h) was be measured using 3H-R5020 as ligand and MCF7 cells as the source of progesterone receptor. The assay is performed as described by Eckert & Katzenellenbogen [1982]. The binding to the bovine progesterone receptor (Assay Cat No: Progesterone receptor-814) was measured using 3H-R5020 as ligand and uterus tissue as the source of progesterone receptor. The assay was performed as described by Hurd & Moudgil [1988].
The results of the receptor binding assay are presented as the individual pKi values, which were determined by measuring the binding activity to the human or bovine PR, as indicated, for a concentration range of each compound.

Test [2] deals with T47D human breast carcinoma cells. In words: cells. Format: cell-based. To be noted: for activation at 0.1 µM: 48 h, read-out: PS [100 nM] (% stimulation); for inhibition at 0.1 µM: read-out: PI [100 nM] (% inhibition); for IC50: read-out: pIC50 (converted); for PS [100 nM] (% stimulation): agonistic mode, alkaline phosphatase induction (100% = 1 nM Dydrogesterone); for PS [100 nM] (% stimulation) / PI [100 nM] (% inhibition): compound 100 nM; for PS [100 nM] (% stimulation) / PI [100 nM] (% inhibition) / pIC50: T47D cells; for PI [100 nM] (% inhibition): antagonistic mode, inhibition of alkaline phosphatase induction by 1 nM Dydrogesterone; for pIC50: antagonistic potency against 1 nM Dydrogesterone. How it is done:
The progesterone-dependent modulation of alkaline phosphatase expression was examined using T47D human breast carcinoma cells [Keydar et al., 1979]. The assay was performed as previously described by Di Lorenzo et al. (1991) with the modification of using Dydrogesterone as comparative progestin to determine the antagonistic and agonistic activity.
The cell line was purchased from CLS Cell Lines Service (Hildastrasse 21, D-69214 Eppelheim, Germany). In brief, the cells were plated in 96-well plates at 40,000 cells/well using the following growth medium: RPMI 1640 with: 10% FBS, 1 mM Sodium Pyruvat MEM, 10 mM Hepes, 0.01 mg/ml Bovine insulin, and 25 μg/ml Gentamycin. After 24 h of cultivation, the growth medium was replaced with medium containing 2% fetal bovine serum and the test compounds were added to each well to achieve the appropriate compound concentration: For determination of agonistic activity only the test compounds were added; for measurement of antagonistic activity the test compounds and additionally Dydrogesterone as standard progesterone agonist was added to a final concentration of 1 nM. After 48 h of cultivation, the medium was removed and the cells were washed with 200 μl of Dulbecco's phosphate-buffered saline without calcium and magnesium (PBS(−)). Then the cells were fixed with 3.7% formaldehyde in phosphate-buffered saline for 15 min at 22° C. After washing the cells with PBS, 100 μl of a […] (pNPP) solution (pNPP Liquid Substrate System; Sigma) was added to each well and incubated for 2 h at room temperature protected from light. The reaction was stopped with 100 μl 1N NaOH and the absorbance was measured with a spectrophotometer (Victor, Perkin Elmer) at 405 nm. The results are expressed as alkaline phosphatase induction (as 100% with 1 nM Dydrogesterone) or inhibition (against alkaline phosphatase induction by 1 nM Dydrogesterone) at a certain concentration of test compound.
% stimulation=(effect compound−basal)/(effect dydro 1 nM−basal)*100% inhibition of 1 nM Dydro=100*{1-[(effect compound−basal)/(effect dydro 1 nM−basal)]}
For each compound the % inhibition (PI) and % stimulation (PS), respectively, at a compound concentration of 100 nM was determined. For selected compounds, the corresponding values were measured for several different concentrations, and subsequently were plotted against the concentration of the test compound, and used to calculate the IC50 value (for the antagonistic potency; the IC50 value is the concentration (nM), required to reduce the maximal response by 50%) and EC50 values (for the agonistic potency; the EC50 value is the effective concentration (nM) that produced 50% of the maximum response), respectively.

In general, inhibition refers to the drop in the measured response relative to a control, in per cent. Regarding `COc1cc(NC(=O)O[C@H]2C[C@]3(C)[C@@H](C(C)=O)CC[C@H]3[C@@H]3C=CC4=CC(=O)CC[C@@]4(C)[C@@H]32)cc(OC)c1OC` [Compound No. 24, (3,4,5-Trimethoxy-phenyl)-carbamic acid dydrogesterone-11β-yl ester], the Ki in test [1] is 200 nM. Besides, in test [2] (Homo sapiens, T47D), the activation at 0.1 µM turned out to be 0%, the inhibition at 0.1 µM amounted to 88% and the IC50 was 50.1 nM.
Regarding `CC(=O)[C@H]1CC[C@H]2[C@@H]3C=CC4=CC(=O)CC[C@@]4(C)[C@@H]3[C@@H](OC(=O)Nc3cccc(OC(F)(F)F)c3)C[C@]12C` [compound 63, (3-Trifluoromethoxy-phenyl)-carbamic acid dydrogesterone-11-yl ester], the Ki in test [1] is at least 631 nM.
One may read the pIC50 as the IC50 on a negative log10 scale, so that one unit is a factor of ten. A high value points to a low IC50. Regarding `CC(=O)c1cccc(NC(=O)OC2C[C@]3(C)[C@@H](C(C)=O)CC[C@H]3[C@@H]3C=CC4=CC(=O)CC[C@]4(C)[C@@H]23)c1` (stereo partly shown) [compound 81, (3-Acetyl-phenyl)-carbamic aciddydrogesterone-11-yl ester], the “Human PR binding (pKi)” value in test [1] turned out to be 6.6. Further, in test [2], the “PS [100 nM] (% stimulation)” value is recorded as 1.0%, the “PI [100 nM] (% inhibition)” value is 72.0% and the pIC50 is reported as 7.3.
With `CC(=O)[C@H]1CC[C@H]2[C@@H]3C=CC4=CC(=O)CC[C@@]4(C)[C@@H]3[C@@H](OC(=O)Nc3ccc4c(c3)N(C)C(=O)CO4)C[C@]12C` [compound 101, (4-Methyl-3-oxo-3,4-dihydro-2H-benzo[1,4]oxazin-6-yl)-carbamic acid dydrogesterone-11-yl ester], the Ki in test [1] is 316 nM. Also, in test [2] (Homo sapiens, T47D), the activation at 0.1 µM was found to be 0%, the inhibition at 0.1 µM is 72% and the IC50 was 79.4 nM.
As to `CCO[C@]1(C(C)=O)CC[C@H]2[C@@H]3C=CC4=CC(=O)CC[C@@]4(C)[C@@H]3[C@@H](OC(=O)Nc3ccc4c(c3)OCO4)C[C@@]21C` [Compound No. 34, Benzo[1,3]-dioxol-5-yl-carbamic acid 17-ethoxy-dydrogesterone-11β-yl este], the Ki in test [1] was 126 nM. In test [2] (Homo sapiens, T47D), the activation at 0.1 µM is 95% and the inhibition at 0.1 µM turned out to be 5%.
With `CC(=O)[C@H]1CC[C@H]2[C@@H]3C=CC4=CC(=O)CC[C@@]4(C)[C@@H]3[C@@H](OC(=O)Nc3ccc(F)c(C#N)c3)C[C@]12C` [compound 85, (3-Cyano-4-fluoro-phenyl)-carbamic acid dydrogesterone-11-yl ester], the Ki in test [1] was 501 nM.
With `CC(=O)[C@H]1CC[C@H]2[C@@H]3C=CC4=CC(=O)CC[C@@]4(C)[C@@H]3C(OC(=O)Nc3ccc4c(c3)NC(=O)C(C)S4)C[C@]12C` (stereo partly shown) [compound 102, (2-Methyl-3-oxo-3,4-dihydro-2H-benzo[1,4]thiazin-6-yl)-carbamic acid dydrogesterone-11-yl ester], in test [1], the “Human PR binding (pKi)” value is given as 6.3. Further, in test [2], the “PS [100 nM] (% stimulation)” value turned out to be 0.0%, the “PI [100 nM] (% inhibition)” value is reported as 98.0% and the pIC50 turned out to be 8.1.
Regarding `CSc1cccc(NC(=O)O[C@H]2C[C@]3(C)[C@@H](C(C)=O)CC[C@H]3[C@@H]3C=CC4=CC(=O)CC[C@@]4(C)[C@@H]32)c1` [compound 92, (3-Methylsulfanyl-phenyl)-carbamic acid dydrogesterone-11-yl ester], the Ki in test [1] is at least 631 nM. In addition, in test [2] (Homo sapiens, T47D), the activation at 0.1 µM turned out to be 1%, the inhibition at 0.1 µM stood at 55% and the IC50 was 100 nM.
`CC(=O)[C@H]1CC[C@H]2[C@@H]3C=CC4=CC(=O)CC[C@@]4(C)[C@@H]3[C@@H](OC(=O)NCc3ccc(S(C)(=O)=O)cc3)C[C@]12C` [compound 67, (4-Methanesulfonyl-benzyl)-carbamic acid dydrogesterone-11-yl ester]: the Ki in test [1] is at least 631 nM.
As for `CC(=O)Nc1ccc(NC(=O)OC2C[C@]3(C)[C@@H](C(C)=O)CC[C@H]3[C@@H]3C=CC4=CC(=O)CC[C@@]4(C)[C@H]23)cc1` (stereo partly shown) [compound 82, (4-Acetylamino-phenyl)-carbamicacid dydrogesterone-11-yl ester], the “Human PR binding (pKi)” value in test [1] worked out at 6.6. In addition, in test [2], the “PS [100 nM] (% stimulation)” value is reported as 0.0% and the “PI [100 nM] (% inhibition)” value is recorded as 40.0%.
As to `CC(=O)[C@H]1CC[C@H]2[C@@H]3C=CC4=CC(=O)CC[C@@]4(C)[C@@H]3C(OC(=O)Nc3ccc4cnn(C)c4c3)C[C@]12C` (stereo partly shown) [compound 99, (1-Methyl-1H-indazol-6-yl)-carbamic acid dydrogesterone-11-yl ester], the “Human PR binding (pKi)” value in test [1] came to 6.3. In addition, in test [2], the “PS [100 nM] (% stimulation)” value was 0.0%, the “PI [100 nM] (% inhibition)” value was determined as 70.0% and the pIC50 was 7.1.
Take `CC(=O)[C@H]1CC[C@H]2[C@@H]3C=CC4=CC(=O)CC[C@@]4(C)[C@@H]3[C@@H](OC(=O)Nc3ccc4cn[nH]c4c3)C[C@]12C` [compound 41, (1H-Indazol-6-yl)-carbamic aciddydrogesterone-11-yl ester]: the Ki in test [1] is 316 nM. In test [2] (Homo sapiens, T47D), the activation at 0.1 µM is 1%, the inhibition at 0.1 µM was 96% and the IC50 was 6.31 nM.
Turning to `COc1ccc(CNC(=O)O[C@H]2C[C@]3(C)[C@@H](C(C)=O)CC[C@H]3[C@@H]3C=CC4=CC(=O)CC[C@@]4(C)[C@@H]32)cc1` [compound 55, (4-Methoxy-benzyl)-carbamicacid dydrogesterone-11-yl ester], in test [1], the Ki is 100 nM. Further, in test [2] (Homo sapiens, T47D), the activation at 0.1 µM is 143% and the inhibition at 0.1 µM was -79%. Also, the EC50 in test [2] (Homo sapiens, T47D, read-out: pEC50 (converted)) is 50.1 nM.
As for `CC(=O)[C@H]1CC[C@H]2[C@@H]3C=CC4=CC(=O)CC[C@@]4(C)[C@@H]3[C@@H](OC(=O)NCc3cccc(F)c3)C[C@]12C` [compound 78, (3-Fluoro-benzyl)-carbamic aciddydrogesterone-11-yl ester], in test [1], the Ki is 398 nM.
For `COc1ccccc1N1CCN(C(=O)O[C@H]2C[C@]3(C)[C@@H](C(C)=O)CC[C@H]3[C@@H]3C=CC4=CC(=O)CC[C@@]4(C)[C@@H]32)CC1` [compound 43, 4-(2-Methoxy-phenyl)-piperazine-1-carboxylic aciddydrogesterone-11-yl ester], the Ki in test [1] is at least 631 nM.
On to `CC(=O)[C@H]1CC[C@H]2[C@@H]3C=CC4=CC(=O)CC[C@@]4(C)[C@@H]3[C@@H](OC(=O)Nc3ccc4c(=O)cc(C)oc4c3)C[C@]12C` [compound 77, (2-Methyl-4-oxo-4H-chromen-7-yl)-carbamic aciddydrogesterone-11-yl ester], for which the Ki in test [1] is at least 631 nM.
For the compound `CC(=O)[C@H]1CC[C@H]2[C@@H]3C=CC4=CC(=O)CC[C@@]4(C)[C@@H]3[C@@H](OC(=O)Nc3cccc(C#N)c3)C[C@]12C` [compound 71, (3-Cyano-phenyl)-carbamic aciddydrogesterone-11-yl ester], in test [1], the Ki was at least 631 nM.
As for `CC(=O)[C@H]1CC[C@H]2[C@@H]3C=CC4=CC(=O)CC[C@@]4(C)[C@@H]3[C@@H](OC(=O)Nc3cccc(/C=N/O)c3)C[C@]12C` [Compound No. 32, [3-(Hydroxyimino-methyl)-phenyl]-carbamic acid dydrogesterone-11-yl ester], the Ki in test [1] was 316 nM.
